Data reported in patent publication US20250346569A1, “NEW DERIVATIVES FOR TREATING TRPM3 MEDIATED DISORDERS” (Katholieke Universiteit Leuven, priority 2022, published 2025).

How the values were obtained:
[1] = molecular target: T1, mouse TRPM3α2 (mTRPM3) ion channel (Mus musculus, UniProt J9SQF3); test: Monitoring the TRPM3 ion channel driven Ca2+ uptake (Fluo-4 AM assay); format: cell-based; settings: TRPM3 overexpressing flip-in HEK293 cells, channel stimulated with Pregnenolone sulfate (PS) 50 μM
T1 construct: expressed in transfected cells; host or cells: flip-in HEK293
T1 sequence (J9SQF3 1-1709 isoform J9SQF3-12): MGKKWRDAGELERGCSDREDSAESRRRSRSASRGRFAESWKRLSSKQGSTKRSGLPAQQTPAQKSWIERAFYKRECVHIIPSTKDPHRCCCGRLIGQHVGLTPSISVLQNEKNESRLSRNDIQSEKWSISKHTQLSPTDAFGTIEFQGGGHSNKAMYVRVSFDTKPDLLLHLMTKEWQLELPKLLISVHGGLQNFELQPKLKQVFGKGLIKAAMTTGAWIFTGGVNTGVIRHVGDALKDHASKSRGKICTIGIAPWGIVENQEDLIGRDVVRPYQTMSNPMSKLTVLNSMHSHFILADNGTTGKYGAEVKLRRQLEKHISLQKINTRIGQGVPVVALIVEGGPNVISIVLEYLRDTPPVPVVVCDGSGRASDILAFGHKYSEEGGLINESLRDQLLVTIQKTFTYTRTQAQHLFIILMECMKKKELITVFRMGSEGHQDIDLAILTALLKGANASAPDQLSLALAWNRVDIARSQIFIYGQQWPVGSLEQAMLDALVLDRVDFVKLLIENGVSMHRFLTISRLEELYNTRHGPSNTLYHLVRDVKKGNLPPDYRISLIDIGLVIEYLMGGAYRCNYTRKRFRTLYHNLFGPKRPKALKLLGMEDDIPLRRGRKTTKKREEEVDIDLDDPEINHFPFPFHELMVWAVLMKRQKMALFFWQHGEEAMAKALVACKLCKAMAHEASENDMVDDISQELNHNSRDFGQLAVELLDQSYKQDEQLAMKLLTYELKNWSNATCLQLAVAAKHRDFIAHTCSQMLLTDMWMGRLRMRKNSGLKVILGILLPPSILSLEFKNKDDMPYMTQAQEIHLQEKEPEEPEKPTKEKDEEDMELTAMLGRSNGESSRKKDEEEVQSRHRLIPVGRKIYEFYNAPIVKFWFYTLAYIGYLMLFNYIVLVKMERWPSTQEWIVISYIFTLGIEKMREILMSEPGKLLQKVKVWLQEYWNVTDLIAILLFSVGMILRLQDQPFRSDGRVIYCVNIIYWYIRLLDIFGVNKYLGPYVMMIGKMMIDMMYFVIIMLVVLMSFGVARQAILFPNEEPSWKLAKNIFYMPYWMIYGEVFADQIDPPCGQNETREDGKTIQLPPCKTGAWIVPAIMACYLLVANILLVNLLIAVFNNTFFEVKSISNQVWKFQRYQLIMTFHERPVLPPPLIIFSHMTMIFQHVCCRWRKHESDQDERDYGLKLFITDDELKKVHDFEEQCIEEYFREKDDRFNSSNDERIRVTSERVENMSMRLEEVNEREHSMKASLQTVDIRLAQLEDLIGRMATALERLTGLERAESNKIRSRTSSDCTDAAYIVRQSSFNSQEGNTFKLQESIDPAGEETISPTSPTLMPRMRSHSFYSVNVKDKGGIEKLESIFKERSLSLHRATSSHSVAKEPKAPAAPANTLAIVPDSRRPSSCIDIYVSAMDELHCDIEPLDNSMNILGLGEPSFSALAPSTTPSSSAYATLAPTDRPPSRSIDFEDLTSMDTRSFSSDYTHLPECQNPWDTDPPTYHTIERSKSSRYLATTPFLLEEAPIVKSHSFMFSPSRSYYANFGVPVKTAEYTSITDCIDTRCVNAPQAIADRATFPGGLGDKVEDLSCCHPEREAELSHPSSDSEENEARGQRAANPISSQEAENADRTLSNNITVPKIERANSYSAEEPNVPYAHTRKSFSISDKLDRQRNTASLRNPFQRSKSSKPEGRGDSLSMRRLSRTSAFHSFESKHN
Outline: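 Flp-In HEK293 cells overexpressing mTRPM3α2, loaded with Fluo-4 AM and added to wells holding compound plus 50 μM pregnenolone sulfate in Ca2+-containing Krebs buffer. Fluorescence (ex 485/em 535) read right after cell addition. Inhibition normalised to vehicle and positive-control inhibitor; IC50 derived.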

[2] = rat pain model; cited from earlier work
[3] = tested on: TRPM3; settings: wild type mice vs knock-out TRPM3 mice; cited from earlier work

IC50 [1] [µM] | Compound | further results
< 1 | COc1ncccc1COc1ccc2sc(C)c(C(=O)NC3(CO)CCC3)c2c1 [Cpd 143, N-[1-(hydroxymethyl)cyclobutyl]-5-[(2-methoxypyridin-3-yl)methoxy]-2-methyl-1-benzothiophene-3-carboxamide] | 
1 to 20 | COc1ncccc1COc1ccc2sc(C)c(C(=O)NC3(CO)CCOCC3)c2c1 [Cpd 144, N-[4-(hydroxymethyl)oxan-4-yl]-5-[(2-methoxypyridin-3-yl)methoxy]-2-methyl-1-benzothiophene-3-carboxamide] | 
> 20 | O=C(NC1CC(F)(F)C1)c1c(C(F)F)sc2ccc(OCc3ccccc3)cc12 [Cpd 145, 5-(benzyloxy)-N-(3,3-difluorocyclobutyl)-2-(difluoromethyl)-1-benzothiophene-3-carboxamide] | 
1 to 20 | O=C(NC1CCOC1)c1c(C(F)F)sc2ccc(OCc3ccccc3)cc12 (stereo not drawn) [Cpd 147, 5-(benzyloxy)-2-(difluoromethyl)-N-(oxolan-3-yl)-1-benzothiophene-3-carboxamide] | 
> 20 | O=C1CCC(CNC(=O)c2c(C(F)F)sc3ccc(OCc4ccccc4)cc23)N1 (stereo not drawn) [Cpd 148, 5-(benzyloxy)-2-(difluoromethyl)-N-[(5-oxopyrrolidin-2-yl)methyl]-1-benzothiophene-3-carboxamide] | 

The next lines start with the compound.

Compound | IC50 [1] [µM] | further results
O=C(NC1CCNC1=O)c1c(C(F)F)sc2ccc(OCc3ccccc3)cc12 (stereo not drawn) [Cpd 146, 5-(benzyloxy)-2-(difluoromethyl)-N-(2-oxopyrrolidin-3-yl)-1-benzothiophene-3-carboxamide] | < 1 | 
O=C(NCCN1CCOC1=O)c1c(C(F)F)sc2ccc(OCc3ccccc3)cc12 [Cpd 149, 5-(benzyloxy)-2-(difluoromethyl)-N-[2-(2-oxo-1,3-oxazolidin-3-yl)ethyl]-1-benzothiophene-3-carboxamide] | > 20 | 
O=C(O)c1c(C(F)F)sc2ccc(OCc3ccccc3)cc12 [Cpd 150, 5-(benzyloxy)-2-(difluoromethyl)-1-benzothiophene-3-carboxylic acid] | < 1 | 
O=C(NCc1cccc(O)n1)c1c(C(F)F)sc2ccc(OCc3ccccc3)cc12 [Cpd 151, 5-(benzyloxy)-2-(difluoromethyl)-N-[(6-hydroxypyridin-2-yl)methyl]-1-benzothiophene-3-carboxamide] | > 20 | 
O=C(NC1(CO)CCOCC1)c1c(C(F)F)sc2ccc(OCc3ccccc3)cc12 [Cpd 152, 5-(benzyloxy)-2-(difluoromethyl)-N-[4-(hydroxymethyl)oxan-4-yl]-1-benzothiophene-3-carboxamide] | > 20 | 
O=C1C[C@@H](c2ccc(O)cc2)Oc2cc(O)ccc21 [Liquiritigenin] |  | mechanical and cold hyperalgesia [2]: decrease mechanical and cold hyperalgesia
pregnenolone sulfate |  | pain [3]: evoked pain in wild type mice but not in knock-out TRPM3 mice
